For the first assay, the target named is T1, wild-type human cardiac sodium channel, hNav1.5 (late sodium current) (Homo sapiens, UniProt Q14524).
T1 construct: host or cells: HEK293
T1 sequence (Q14524 whole entry): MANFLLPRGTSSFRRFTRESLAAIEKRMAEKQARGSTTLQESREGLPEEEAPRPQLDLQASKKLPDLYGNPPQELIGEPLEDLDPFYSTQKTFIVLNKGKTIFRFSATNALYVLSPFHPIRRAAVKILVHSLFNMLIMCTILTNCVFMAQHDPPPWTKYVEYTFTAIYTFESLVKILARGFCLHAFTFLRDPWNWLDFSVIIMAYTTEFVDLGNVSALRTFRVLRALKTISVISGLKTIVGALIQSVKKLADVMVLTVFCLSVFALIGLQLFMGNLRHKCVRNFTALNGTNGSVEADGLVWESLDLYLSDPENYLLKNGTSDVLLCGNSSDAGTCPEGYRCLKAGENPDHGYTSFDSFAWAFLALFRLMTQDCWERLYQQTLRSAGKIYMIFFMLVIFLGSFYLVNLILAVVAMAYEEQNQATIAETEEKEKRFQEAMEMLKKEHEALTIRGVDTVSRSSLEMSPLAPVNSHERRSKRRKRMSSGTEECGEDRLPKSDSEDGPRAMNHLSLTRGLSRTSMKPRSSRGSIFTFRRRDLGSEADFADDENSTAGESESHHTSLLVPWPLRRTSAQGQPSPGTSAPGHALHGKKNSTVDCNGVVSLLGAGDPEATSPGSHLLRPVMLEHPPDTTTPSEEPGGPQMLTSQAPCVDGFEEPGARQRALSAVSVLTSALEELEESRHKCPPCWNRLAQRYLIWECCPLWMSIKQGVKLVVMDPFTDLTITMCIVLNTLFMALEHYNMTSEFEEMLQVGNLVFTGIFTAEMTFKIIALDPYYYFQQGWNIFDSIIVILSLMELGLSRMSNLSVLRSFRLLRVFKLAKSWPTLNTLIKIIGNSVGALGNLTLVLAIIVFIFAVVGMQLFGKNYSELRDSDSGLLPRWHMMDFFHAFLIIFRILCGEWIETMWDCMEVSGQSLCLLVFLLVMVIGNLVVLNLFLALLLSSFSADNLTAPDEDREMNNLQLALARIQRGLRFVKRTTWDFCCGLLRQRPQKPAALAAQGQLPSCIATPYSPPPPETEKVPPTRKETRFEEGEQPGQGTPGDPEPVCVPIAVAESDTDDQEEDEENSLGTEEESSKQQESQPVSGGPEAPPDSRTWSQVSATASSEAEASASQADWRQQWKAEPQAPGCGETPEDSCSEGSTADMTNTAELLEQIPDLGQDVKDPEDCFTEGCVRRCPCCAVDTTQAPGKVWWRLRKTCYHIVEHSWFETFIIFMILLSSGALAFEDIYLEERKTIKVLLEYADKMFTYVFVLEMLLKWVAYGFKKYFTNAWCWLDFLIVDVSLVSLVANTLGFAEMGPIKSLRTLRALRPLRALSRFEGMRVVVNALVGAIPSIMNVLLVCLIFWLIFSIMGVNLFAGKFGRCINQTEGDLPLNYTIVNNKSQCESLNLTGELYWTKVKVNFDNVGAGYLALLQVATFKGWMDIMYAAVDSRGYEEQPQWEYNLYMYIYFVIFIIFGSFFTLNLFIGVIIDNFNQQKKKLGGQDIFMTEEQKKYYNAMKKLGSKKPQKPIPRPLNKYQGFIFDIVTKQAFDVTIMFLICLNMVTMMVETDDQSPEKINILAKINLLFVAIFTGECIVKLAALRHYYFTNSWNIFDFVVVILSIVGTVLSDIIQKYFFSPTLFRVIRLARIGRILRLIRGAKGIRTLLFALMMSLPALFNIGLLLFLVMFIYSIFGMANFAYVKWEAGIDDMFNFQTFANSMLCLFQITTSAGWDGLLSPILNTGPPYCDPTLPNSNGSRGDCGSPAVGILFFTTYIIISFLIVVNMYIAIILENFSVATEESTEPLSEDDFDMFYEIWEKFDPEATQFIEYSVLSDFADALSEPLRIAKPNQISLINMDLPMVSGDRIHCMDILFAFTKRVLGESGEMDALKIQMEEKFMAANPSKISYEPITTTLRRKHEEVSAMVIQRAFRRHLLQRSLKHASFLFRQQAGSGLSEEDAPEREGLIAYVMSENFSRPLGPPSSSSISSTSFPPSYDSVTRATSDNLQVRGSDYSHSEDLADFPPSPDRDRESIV
The assay is described as follows: Late INa screening assay (PatchXpress whole cell patch clamp). The assay is classed as cell-based. As to conditions: 1 μM test compound; HEK293 hNav1.5; late INa generated with 10 μM Tefluthrin (some experiments 50 nM ATX II); read-out: Late INa % blk (1 μM test cmpd). In short, it runs like this:
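Late sodium current block was assessed by automated whole cell patch clamp on a PatchXpress 7000A using HEK293 cells stably expressing wild-type human hNav1.5 without beta subunits. Late current was induced with 10 μM Tefluthrin or 50 nM ATX II. Channels were stepped from −120 mV to −20 mV for 250 ms at 0.1 Hz at 24-27° C. Current was normalized to 0Na baseline and expressed as percent block.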
(Patch clamp records ionic current or voltage across a cell membrane.)
Consider `Cc1cc(-c2ccc(Oc3ccccc3)cc2)c(Cl)cc1NS(C)(=O)=O` [PT-041, N-(2-chloro-5-methyl-4′-phenoxybiphenyl-4-yl)methanesulfonamide], for which the inhibition at 1 µM was 45%. `CS(=O)(=O)Nc1ccc(-c2ccc(Cl)c(C(F)(F)F)c2)c(Cl)c1` [PT-058, N-[2,4′-dichloro-3′-(trifluoromethyl)biphenyl-4-yl]methanesulfonamide]: the inhibition at 1 µM was determined as 42.5%. Still for that read-out and setting: the result for `CS(=O)(=O)Nc1ccc(-c2ccc(F)c(Cl)c2)c(Cl)c1` [PT-038, N-(2,3′-dichloro-4′-fluorobiphenyl-4-yl)methanesulfonamide] reads 28.8%.

Still in this assay, the particulars now being: 10 μM test compound; HEK293 hNav1.5; late INa generated with 10 μM Tefluthrin (some experiments 50 nM ATX II); read-out: Late INa % blk (10 μM test cmpd).
Take `CCOC(=O)CN(c1ccc(-c2ccc(Cl)c(F)c2)c(Cl)c1)S(C)(=O)=O` [PT-025, ethyl N-(2,4′-dichloro-3′-fluorobiphenyl-4-yl)-N-(methylsulfonyl)glycinate]: the inhibition at 10 µM came out at 60%. Same read-out and setting: the result for `Cc1cc(-c2ccc(Oc3ccccc3)cc2)c(F)cc1N(Cc1ccc(C(=O)O)cc1)S(C)(=O)=O` [PT-142, 4-((N-(2-fluoro-5-methyl-4′-phenoxybiphenyl-4-yl)methylsulfonamido)methyl)benzoic acid] reads 2.7%; that for `Cc1cc(NS(C)(=O)=O)ccc1-c1ccc(F)c(Cl)c1` [PT-039, N-(3′-chloro-4′-fluoro-2-methylbiphenyl-4-yl)methanesulfonamide], 62.9%.

For the molecule `CC(C)Oc1ccc(-c2ccc(NS(=O)(=O)C3CC3)c(-c3nn[nH]n3)c2)cc1` [PT-157, N-(4′-isopropoxy-3-(2H-tetrazol-5-yl)biphenyl-4-yl)cyclopropanesulfonamide], the inhibition at 10 µM worked out at 5.8%. The same measure, in the same setting: the result for `CN1CCN(CCN(c2ccc(-c3ccc(Cl)c(F)c3)c(Cl)c2)S(C)(=O)=O)CC1` [PT-063, N-(2,4′-dichloro-3′-fluorobiphenyl-4-yl)-N-[2-(4-methylpiperazin-1-yl)ethyl]methanesulfonamide] reads 48.8%; that for `Cc1cc(NS(=O)(=O)C2CC2)ccc1-c1ccc(OC(C)C)cc1` [PT-151, N-(4′-isopropoxy-2-methylbiphenyl-4-yl)cyclopropanesulfonamide], 32.6%; that for `Cc1cc(-c2ccc(Oc3ccccc3)cc2)c(Cl)cc1NS(C)(=O)=O` [PT-041, N-(2-chloro-5-methyl-4′-phenoxybiphenyl-4-yl)methanesulfonamide], 59.3%. With `CS(=O)(=O)Nc1ccc(-c2ccc(C(F)(F)F)cc2)c(N)c1` [PT-164, N-(2-amino-4′-(trifluoromethyl)biphenyl-4-yl)methanesulfonamide], the inhibition at 10 µM was 12.2%. Take `CS(=O)(=O)N(CC(=O)O)c1ccc(-c2ccc(Cl)c(F)c2)c(Cl)c1` [PT-092, N-(2,4′-dichloro-3′-fluorobiphenyl-4-yl)-N-(methylsulfonyl)glycine]: the inhibition at 10 µM was -2.4%. Still for that read-out and setting: the result for `CS(=O)(=O)Nc1ccc(-c2ccc(F)c(F)c2)cc1` [PT-002, N-(3′,4′-difluorobiphenyl-4-yl)methanesulfonamide] reads 21.8%; that for `Cc1cc(NS(=O)(=O)C2CC2)ccc1-c1ccc(-c2nn[nH]n2)cc1` [PT-158, N-(2-methyl-4′-(2H-tetrazol-5-yl)biphenyl-4-yl)cyclopropanesulfonamide], 2.8%. Take `CS(=O)(=O)Nc1ccc(-c2ccc(F)c(F)c2)c(Cl)c1` [PT-023, N-(2-chloro-3′,4′-difluorobiphenyl-4-yl)methanesulfonamide]: the inhibition at 10 µM amounted to 48.2%. Same read-out and setting: the result for `COc1cc(N(CC(=O)O)S(C)(=O)=O)ccc1-c1cccc(OC(F)(F)F)c1` [PT-089, N-[2-methoxy-3′-(trifluoromethoxy)biphenyl-4-yl]-N-(methylsulfonyl)glycine] reads -4.1%; that for `CS(=O)(=O)Nc1ccc(-c2ccc(F)cc2F)c(Cl)c1` [PT-024, N-(2-chloro-2′,4′-difluorobiphenyl-4-yl)methanesulfonamide], 43.5%; that for `CS(=O)(=O)Nc1ccc(-c2ccc(Oc3ccccc3)cc2)c(N)c1` [PT-163, N-(2-amino-4′-phenoxybiphenyl-4-yl)methanesulfonamide], 54.7%. Turning to `CS(=O)(=O)Nc1ccc(-c2ccc(Cl)c(C(F)(F)F)c2)c(Cl)c1` [PT-058, N-[2,4′-dichloro-3′-(trifluoromethyl)biphenyl-4-yl]methanesulfonamide], the inhibition at 10 µM was found to be 78.5%.

As for `COc1cc(NS(C)(=O)=O)ccc1-c1ccc(F)cc1` [PT-031, N-(4′-fluoro-2-methoxybiphenyl-4-yl)methanesulfonamide], the inhibition at 10 µM worked out at 17.1%. For `CS(=O)(=O)Nc1ccc(-c2ccc(F)c(Cl)c2)c(Cl)c1` [PT-038, N-(2,3′-dichloro-4′-fluorobiphenyl-4-yl)methanesulfonamide], the inhibition at 10 µM came to 71%. Still for that read-out and setting: the result for `Cc1cc(N(Cc2ccc(C(=O)O)cc2)S(C)(=O)=O)ccc1-c1ccc(Oc2ccccc2)c(F)c1` [PT-141, 4-((N-(3′-fluoro-2-methyl-4′-phenoxybiphenyl-4-yl)methylsulfonamido)methyl)benzoic acid] reads 23.8%. Same read-out and setting: the result for `Cc1cc(N(Cc2ccc([N+](=O)[O-])cc2)S(C)(=O)=O)ccc1-c1ccc(Oc2ccccc2)cc1` [PT-143, N-(2-methyl-4′-phenoxybiphenyl-4-yl)-N-(4-nitrobenzyl)methanesulfonamide] reads 8.7%.

Take `CCCS(=O)(=O)Nc1ccc(-c2ccc(Cl)c(F)c2)c(Cl)c1` [PT-027, N-(2,4′-dichloro-3′-fluorobiphenyl-4-yl)propane-1-sulfonamide]: the inhibition at 10 µM stood at 55.5%.

For the molecule `CS(=O)(=O)Nc1ccc(-c2cccc(OC(F)(F)F)c2)cc1OC(F)(F)F` [PT-100, N-[3,3′-bis(trifluoromethoxy)biphenyl-4-yl]methanesulfonamide], the inhibition at 10 µM was -0.7%.

For `COc1ccc(-c2ccc(NS(C)(=O)=O)cc2Cl)cc1` [PT-051, N-(2-chloro-4′-methoxybiphenyl-4-yl)methanesulfonamide], the inhibition at 10 µM worked out at 27%. Still for that read-out and setting: the result for `COc1cc(NS(C)(=O)=O)ccc1-c1ccc(OC(F)(F)F)cc1` [PT-009, N-[2-methoxy-4′-(trifluoromethoxy)biphenyl-4-yl]methanesulfonamide] reads 20.9%. For the molecule `Cc1cc(NS(C)(=O)=O)ccc1-c1ccc(OC(C)C)cc1` [PT-144, N-(4′-isopropoxy-2-methylbiphenyl-4-yl)methanesulfonamide], the inhibition at 10 µM is 44.7%.

Regarding `CS(=O)(=O)Nc1ccc(-c2ccc(F)cc2)c(Cl)c1` [PT-037, N-(2-chloro-4′-fluorobiphenyl-4-yl)methanesulfonamide], the inhibition at 10 µM is 40.4%. As to `CS(=O)(=O)Nc1ccc(-c2ccc(Cl)c(F)c2)c(F)c1` [PT-059, N-(4′-chloro-2,3′-difluorobiphenyl-4-yl)methanesulfonamide], the inhibition at 10 µM worked out at 41.3%.

As to `COC(=O)c1cc(-c2ccc(Oc3ccccc3)cc2)ccc1NS(=O)(=O)C1CC1` [PT-116, methyl 4-[(cyclopropylsulfonyl)amino]-4′-phenoxybiphenyl-3-carboxylate], the inhibition at 10 µM stood at 11.2%. With `CNC(=O)c1cc(NS(=O)(=O)C2CC2)ccc1-c1ccc(Oc2ccccc2)cc1` [PT-139, 4-(cyclopropanesulfonamido)-N-methyl-4′-phenoxybiphenyl-2-carboxamide], the inhibition at 10 µM stood at 43.7%. As to `CC(C)Oc1ccc(-c2ccc(NS(C)(=O)=O)c(Cl)c2)cc1` [PT-148, N-(3-chloro-4′-isopropoxybiphenyl-4-yl)methanesulfonamide], the inhibition at 10 µM stood at 36.2%. Turning to `COC(=O)c1cc(-c2ccc(C(F)(F)F)cc2)ccc1NS(C)(=O)=O` [PT-121, methyl 4-[(methylsulfonyl)amino]-4′-(trifluoromethyl)biphenyl-3-carboxylate], the inhibition at 10 µM was determined as 40.5%. The same measure, in the same setting: the result for `CS(=O)(=O)N(Cc1ccc(C(=O)O)cc1)c1ccc(-c2ccc(Oc3ccccc3)cc2)cc1` [PT-156, 4-((N-(4′-phenoxybiphenyl-4-yl)methylsulfonamido)methyl)benzoic acid] reads 7.9%.

As for `Cc1cc(N(Cc2cccnc2)S(C)(=O)=O)ccc1-c1cccc(OC(F)(F)F)c1` [PT-073, N-[2-methyl-3′-(trifluoromethoxy)biphenyl-4-yl]-N-(pyridin-3-ylmethyl)methanesulfonamide], the inhibition at 10 µM came to 64.4%. Turning to `CS(=O)(=O)Nc1cccc(-c2ccc(C(F)(F)F)c(F)c2)c1` [PT-132, N-(3′-fluoro-4′-(trifluoromethyl)biphenyl-3-yl)methanesulfonamide], the inhibition at 10 µM stood at 65.9%. Still for that read-out and setting: the result for `CS(=O)(=O)Nc1ccc(-c2cc(C(F)(F)F)ccc2F)c(Cl)c1` [PT-070, N-[2-chloro-2′-fluoro-5′-(trifluoromethyl)biphenyl-4-yl]methanesulfonamide] reads 69.7%; that for `CS(=O)(=O)Nc1ccc(-c2ccc(F)c(C(F)(F)F)c2)c(Cl)c1` [PT-069, N-[2-chloro-4′-fluoro-3′-(trifluoromethyl)biphenyl-4-yl]methanesulfonamide], 63%.

For the origin of these results see patent US8389500B2, “Fused heterocyclic compounds as ion channel modulators” (Gilead Sciences, Inc., priority 2008, dated 2013).
